Measurements taken from PubChem BioAssay AID248 (DTP/NCI, 2004).
“And” between values parts separate entries of the source, which are not always exact repeats. Identical values can stand only once. Toxic doses and inconclusive results are not listed. No stated cut-off is given here; in the data, active means T/C of 150% or more; inactive means T/C below 125%.

System: L1210 leukemia ip in BDF1 mice, survival T/C
Test: NCI In Vivo Anticancer Drug Screen. Data for tumor model L1210 Leukemia (intraperitoneal) in B6D2F1 (BDF1) mice
Conditions: endpoint: mean survival time, higher = longer survival
Outline: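 Survival endpoint. Drug-treated group vs vehicle group, expressed as T divided by C. Tumor passaged by transplantation.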

Measured: T/C

CN(C)c1ccc(Nc2c3ccccc3nc3ccccc23)cc1
inactive: dose: 3.13 mg/kg/injection, schedule: Q03HX040 (ip), vehicle: saline 106 % of control | dose: 3.75 mg/kg/injection, schedule: Q01DX Z (ip), vehicle: saline 107 % of control | dose: 3.75 mg/kg/injection, schedule: Q01DX Z (oral), vehicle: olive oil, sesame oil, peanut oil 116 % of control | dose: 5.0 mg/kg/injection, schedule: Q01DX005 (ip), vehicle: saline 107 % of control | dose: 5.0 mg/kg/injection, schedule: Q01DX009 (ip), vehicle: saline 107 % of control | dose: 5.0 mg/kg/injection, schedule: Q01DX009 (sc), vehicle: saline 101 % of control | dose: 6.12 mg/kg/injection, schedule: Q03HX008 (ip), vehicle: saline 107 % of control | dose: 6.25 mg/kg/injection, schedule: Q03HX008 (ip), vehicle: saline 104 % of control | dose: 6.25 mg/kg/injection, schedule: Q03HX016 (ip), vehicle: saline 103 % of control | dose: 7.0 mg/kg/injection, schedule: Q01DX Z (sc), vehicle: steriod suspending solution 104 % of control | dose: 7.5 mg/kg/injection, schedule: Q01DX Z (ip), vehicle: saline 110 % of control | dose: 10.0 mg/kg/injection, schedule: Q01DX005 (ip), vehicle: saline 108 % of control | dose: 10.0 mg/kg/injection, schedule: Q01DX009 (ip), vehicle: saline 117 % of control | dose: 10.0 mg/kg/injection, schedule: Q01DX009 (oral), vehicle: saline 118 % of control | dose: 10.0 mg/kg/injection, schedule: Q01DX009 (sc), vehicle: saline 102 % of control | dose: 10.0 mg/kg/injection, schedule: Q01DX Z (sc), vehicle: steriod suspending solution 115 % of control | dose: 12.5 mg/kg/injection, schedule: Q01DX Z (im), vehicle: saline 108 % of control | dose: 12.5 mg/kg/injection, schedule: Q04DX003 (ip), vehicle: saline 104 % of control | dose: 12.5 mg/kg/injection, schedule: Q06HX004 (ip), vehicle: saline 115 % of control | dose: 12.5 mg/kg/injection, schedule: Q#A X Z (oral), vehicle: saline 112 % of control | dose: 15.0 mg/kg/injection, schedule: Q01DX Z (oral), vehicle: olive oil, sesame oil, peanut oil 115 % of control | dose: 15.0 mg/kg/injection, schedule: Q01DX Z (sc), vehicle: steriod suspending solution 107 % of control | dose: 16.0 mg/kg/injection, schedule: Q01DX Z (ip), vehicle: carboxymethylcellulose (CMC) 112 % of control | dose: 17.5 mg/kg/injection, schedule: Q#A X Z (ip), vehicle: saline 116 % of control | dose: 19.0 mg/kg/injection, schedule: Q03DX006 (oral), vehicle: saline 112 % of control | dose: 20.0 mg/kg/injection, schedule: Q01DX009 (oral), vehicle: saline 101 % of control | dose: 20.0 mg/kg/injection, schedule: Q01DX009 (sc), vehicle: saline 100 % of control | dose: 22.5 mg/kg/injection, schedule: Q01DX009 (ip), vehicle: saline 120 % of control | dose: 23.0 mg/kg/injection, schedule: Q01DX Z (sc), vehicle: steriod suspending solution 115 % of control and 119 % of control | dose: 24.0 mg/kg/injection, schedule: Q01DX Z (ip), vehicle: carboxymethylcellulose (CMC) 120 % of control | dose: 24.0 mg/kg/injection, schedule: Q01DX Z (ip), vehicle: saline 111 % of control | dose: 25.0 mg/kg/injection, schedule: Q01DX001 (oral), vehicle: saline 96 % of control | dose: 25.0 mg/kg/injection, schedule: Q01DX001 (sc), vehicle: saline 96 % of control | dose: 25.0 mg/kg/injection, schedule: Q01DX005 (ip), vehicle: Klucel (hydroxypropylcellulose) (HPC) 112 % of control | dose: 25.0 mg/kg/injection, schedule: Q01DX005 (ip), vehicle: other 108 % of control and 114 % of control | dose: 25.0 mg/kg/injection, schedule: Q01DX009 (ip), vehicle: saline 116 % of control | dose: 25.0 mg/kg/injection, schedule: Q01DX Z (im), vehicle: saline 108 % of control | dose: 25.0 mg/kg/injection, schedule: Q01DX Z (oral), vehicle: saline 120 % of control | dose: 27.0 mg/kg/injection, schedule: Q01DX Z (oral), vehicle: saline 115 % of control | dose: 30.0 mg/kg/injection, schedule: Q01DX Z (ip), vehicle: olive oil, sesame oil, peanut oil 116 % of control | dose: 30.0 mg/kg/injection, schedule: Q01DX Z (sc), vehicle: olive oil, sesame oil, peanut oil 114 % of control | dose: 30.0 mg/kg/injection, schedule: Q01DX Z (sc), vehicle: saline 114 % of control | dose: 35.0 mg/kg/injection, schedule: Q01DX Z (ip), vehicle: carboxymethylcellulose (CMC) 118 % of control | dose: 35.0 mg/kg/injection, schedule: Q01DX Z (ip), vehicle: saline 101 % of control and 111 % of control | dose: 35.0 mg/kg/injection, schedule: Q01DX Z (sc), vehicle: steriod suspending solution 113 % of control | dose: 37.0 mg/kg/injection, schedule: Q03DX006 (oral), vehicle: saline 118 % of control | dose: 40.0 mg/kg/injection, schedule: Q01DX009 (sc), vehicle: saline 105 % of control | dose: 50.0 mg/kg/injection, schedule: Q01DX001 (oral), vehicle: saline 105 % of control | dose: 50.0 mg/kg/injection, schedule: Q01DX001 (sc), vehicle: saline 97 % of control | dose: 50.0 mg/kg/injection, schedule: Q01DX005 (ip), vehicle: other 112 % of control | dose: 50.0 mg/kg/injection, schedule: Q01DX Z (im), vehicle: saline 116 % of control | dose: 50.0 mg/kg/injection, schedule: Q01DX Z (oral), vehicle: saline 117 % of control | dose: 50.0 mg/kg/injection, schedule: Q04DX003 (ip), vehicle: Klucel (hydroxypropylcellulose) (HPC) 111 % of control | dose: 50.0 mg/kg/injection, schedule: Q04DX003 (ip), vehicle: other 108 % of control and 119 % of control | dose: 50.0 mg/kg/injection, schedule: Q#A X Z (oral), vehicle: saline 118 % of control | dose: 53.0 mg/kg/injection, schedule: Q01DX Z (sc), vehicle: saline 113 % of control | dose: 53.0 mg/kg/injection, schedule: Q01DX Z (sc), vehicle: steriod suspending solution 115 % of control | dose: 53.3 mg/kg/injection, schedule: Q01DX Z (ip), vehicle: carboxymethylcellulose (CMC) 115 % of control | dose: 53.3 mg/kg/injection, schedule: Q01DX Z (ip), vehicle: methylcellulose (MC) 111 % of control | dose: 60.0 mg/kg/injection, schedule: Q01DX Z (oral), vehicle: olive oil, sesame oil, peanut oil 120 % of control | dose: 60.0 mg/kg/injection, schedule: Q01DX Z (sc), vehicle: olive oil, sesame oil, peanut oil 117 % of control | dose: 80.0 mg/kg/injection, schedule: Q01DX Z (ip), vehicle: methylcellulose (MC) 95 % of control | dose: 80.0 mg/kg/injection, schedule: Q01DX Z (sc), vehicle: saline 107 % of control | dose: 90.0 mg/kg/injection, schedule: Q01DX009 (ip), vehicle: saline 119 % of control | dose: 100.0 mg/kg/injection, schedule: Q01DX001 (oral), vehicle: saline 112 % of control | dose: 100.0 mg/kg/injection, schedule: Q01DX001 (sc), vehicle: saline 108 % of control | dose: 100.0 mg/kg/injection, schedule: Q01DX005 (ip), vehicle: other 100 % of control | dose: 100.0 mg/kg/injection, schedule: Q04DX003 (ip), vehicle: other 112 % of control | dose: 105.0 mg/kg/injection, schedule: Q01DX Z (ip), vehicle: saline 114 % of control | dose: 120.0 mg/kg/injection, schedule: Q01DX Z (oral), vehicle: olive oil, sesame oil, peanut oil 111 % of control | dose: 120.0 mg/kg/injection, schedule: Q01DX Z (sc), vehicle: saline 120 % of control | dose: 125.0 mg/kg/injection, schedule: Q01DX001 (ip), vehicle: Klucel (hydroxypropylcellulose) (HPC) 115 % of control | dose: 125.0 mg/kg/injection, schedule: Q01DX001 (ip), vehicle: saline 111 % of control | dose: 135.0 mg/kg/injection, schedule: Q#A X Z (ip), vehicle: saline 97 % of control | dose: 175.0 mg/kg/injection, schedule: Q01DX001 (oral), vehicle: saline 108 % of control and 121 % of control | dose: 175.0 mg/kg/injection, schedule: Q07DX003 (oral), vehicle: saline 117 % of control | dose: 180.0 mg/kg/injection, schedule: Q01DX Z (ip), vehicle: carboxymethylcellulose (CMC) 96 % of control and 108 % of control and 110 % of control | dose: 180.0 mg/kg/injection, schedule: Q01DX Z (sc), vehicle: saline 97 % of control | dose: 200.0 mg/kg/injection, schedule: Q01DX001 (oral), vehicle: saline 107 % of control | dose: 200.0 mg/kg/injection, schedule: Q01DX001 (sc), vehicle: saline 103 % of control | dose: 245.0 mg/kg/injection, schedule: Q01DX Z (ip), vehicle: saline 110 % of control | dose: 400.0 mg/kg/injection, schedule: Q01DX Z (im), vehicle: saline 93 % of control | dose: 405.0 mg/kg/injection, schedule: Q01DX Z (ip), vehicle: saline 100 % of control and 113 % of control | dose: 480.0 mg/kg/injection, schedule: Q01DX Z (sc), vehicle: saline 109 % of control | dose: 540.0 mg/kg/injection, schedule: Q01DX Z (ip), vehicle: saline 119 % of control | dose: 600.0 mg/kg/injection, schedule: Q03DX006 (oral), vehicle: saline 101 % of control | dose: 608.0 mg/kg/injection, schedule: Q01DX Z (ip), vehicle: saline 114 % of control | dose: 700.0 mg/kg/injection, schedule: Q01DX001 (oral), vehicle: saline 115 % of control | dose: 912.0 mg/kg/injection, schedule: Q01DX Z (ip), vehicle: saline 115 % of control | dose: 1000.0 mg/kg/injection, schedule: Q01DX001 (ip), vehicle: Klucel (hydroxypropylcellulose) (HPC) 109 % of control | dose: 1260.0 mg/kg/injection, schedule: Q01DX Z (ip), vehicle: saline 119 % of control | dose: 1400.0 mg/kg/injection, schedule: Q01DX001 (oral), vehicle: saline 109 % of control
